Measured values taken from EP0791056B1, “LIPID-CLEAVAGE ENZYME COMPLEX” (priority 1994, dated 1996).

Experiments:
CEM-SS-Zellen = experiment: Enzymatic cleavage of [14C]-AZT-DMDOPE by cell homogenates, TLC of metabolites; assay type: in vitro ADME; details: Zellhomogenate von CEM-SS-Zellen
Experimental: Die Spaltung von AZT-DMDOPE wurde mit Hilfe eines Enzym-Assays mit [^14C]-AZT-DMDOPE und AZT-DMDOPE als Substrat untersucht. Als Enzymquelle wurden zunächst Zellhomogenate von CEM-SS-Zellen und humanen PBL verwendet. Tab.
Zur Herstellung der Zellhomogenate wurden Zellsuspensionen mit einer Dichte von 5 x10^7 Zellen/ml 50 mM Tris (pH 7.4) im Glashomogenisator mechanisch aufgeschlossen. Der Zellaufschluß wurde hierbei im Umkehr-Phasenkontrast-Mikroskop optisch kontrolliert. Tab.
Zunächst wurde 1 ml dieses Zellhomogenales in dem Enzym-Assay ohne vorherige Bestimmung der Proteinkonzentration eingesetzt.
Zur Gewährleistung einer Substratsättigung wurden weitere 50 nmol der nichtradioaktiv markierten Verbindung hinzugefügt. [^14C]-AZT-DMDOPE trägt die radioaktive Markierung im Thioetherlipidteil und erlaubt somit eine eindeutige Identifikation der potentiellen Metabolits [^14-C]DMDOP.
Die Ansätze wurden für 1, 3, 6 und 24 h im Wasserbad bei 37 °C inkubiert. Als Vergleich wurde ein Ansatz ohne Zugabe von Zellhomogenat mitgeführt. Anschließend wurden die Spaltprodukte mit Diethylether:2-Propanol (9:1, v/v) extrahiert und dünnschichtchromatographisch im IBA- und IBAE-System analysiert (Abb. 18). Nach Trennung der Substanzen wurde zur Detektion der radioaktiv markierten Substanzen die DC-Platte 15 min im Radio-DC-Analysator gemessen. […]

stimulierten humanen PBL = experiment: Intracellular decay kinetics of AZT and AZT nucleotides after removal of the incubation solution; assay type: in vitro ADME, human
Experimental: Stimulierte humane PBL wurden für 24 h mit 0.3 µg AZT/ml bzw. 10 µg AZT-DMDOPE/ml inkubiert. Anschließend wurden 1 x 10^7 Zellen in Gewebekulturflaschen (50 ml/25 cm^2) mit RPMI 1640 Komplettmedium I überführt. Nach 1, 3, 6, 24 und 48 h wurde AZT und die AZT-Nukleotide aus der zellulären Matrix extrahiert. Nach einer Behandlung mit alkalischer Phosphatase wurde mit Hilfe des Radioimmuno-Assays die Konzentration an AZT bestimmt.

[1] = biological target: T1, Nuclease aus Staphylococcus aureus (Staphylococcus aureus, UniProt P00644); experiment: Enzymatic cleavage of AZT-DMDOPE, detection of cleavage products by thin-layer chromatography; assay type: biochemical; details: 10 mg AZT-DMDOPE in 0,1 M Tris, 0,1 mg enzyme, 15 h + 6 h at 37 °C
T1 construct: purchased Boehringer Mannheim GmbH
Experimental: (§1) 10 mg (3'-Desoxy-3'-azidothymidin)-5'-phosphorsäure-(3-dodecyl-mercapto-2-decyl-oxy)-propylester (AZT-DMDOPE) werden in 0,5 ml 0,1 M Tris-Pufferlösung suspendiert und nach Zugabe des Enzyms (0,5 mg bei Phosphodiesterase und 0,1 mg bei Phospholipase/Nuclease) 15 Stunden bei 37 °C inkubiert. Anschließend wird die Lösung dünnschichtchromatographisch untersucht. Nach Zugabe von 5 Tropfen gesättigter NaHCO3-Lösung wurde weitere 6 Stunden bei 37 °C inkubiert und anschließend die Lösung dünnschichtchromatographisch untersucht.
(§2) Durch Dünnschichtchromatographie mit verschiedenen Elutionsmitteln wurde die Lösung hinsichtlich der Bildung der möglichen Spaltprodukte (AZT, AZT-monophosphat, DMDOP und Lipidmonophosphat) untersucht.
(§3) • a) Phospholipase C aus Bacillus cereus, 2000 U/0,5 ml, Boehringer Mannheim GmbH • b) Phospholipase D, Typ I, aus Kohl, 150 - 300 U/mg, Sigma • c) Phosphodiesterase aus Kalbsmilz, 2 U/mg, Boehringer Mannheim GmbH • d) Phosphodiesterase aus Schlangengift, Boehringer Mannheim GmbH • e) Nuclease aus Staphylococcus aureus, 15 000 U/mg, Boehringer Mannheim GmbH • f) LCE (Lipid-Cleavage-Enzyme)

[2] = system: Phosphodiesterase aus Kalbsmilz; experiment: as above; assay type: biochemical; details: 10 mg AZT-DMDOPE in 0,1 M Tris, 0,5 mg enzyme, 15 h + 6 h at 37 °C
Experimental: as §1, §2, §3

P3X63Ag8.653-Zellen = experiment: Intracellular concentrations of AZT and AZT nucleotides (radioimmunoassay) in thymidine kinase deficient cells; assay type: in vitro ADME; details: for maximale Konzentrationen an AZT und AZT-Nukleotiden: after 6 h; for maximale Konzentrationen, nur AZT erfaßt: after 24 h, without alkaline phosphatase; for Substanzspiegel an phosphoryliertem AZT: comparison before/after alkaline phosphatase
Source text: Die Bestimmung der intrazellulären Konzentrationen an AZT und AZT-Nukleotiden in Thymidikinasedefizienten Zellen sollte weitere Erkenntnisse über die intrazelluläre Spaltung der Testsubstanz AZT-DMDOPE liefern. Intrazelluläres AZT kann in diesen Zellen aufgrund eines Mangels an Thymidin-Kinase (TK) nicht in ATZ-MP und somit in das therapeutisch wirksame AZT-TP überführt werden. Die Bestimmung der intrazellulären Konzentrationen an AZT und AZT-Nukleotiden nach Inkubation mit AZT-DMDOPE könnte somit einen weiteren Hinweis auf die Spaltung der Teststubstanz geben.
Hierfür wurden in Gewebekulturschalen (60 x 15 mm) 1 x 10^7 Zellen in RPMI 1640 Komplettmedium I mit 0.03 bzw. 0.3 µg AZT/ml und 1 bzw. 10 µg AZT-DMDOPE/ml über 6, 24 und 48 h inkubiert. Nach Extraktion von AZT und der AZT-Nukleotide und einer Behandlung mit alkalischer Phosphatase wurde die Konzentration an AZT mit Hilfe des Radioimmuno-Assays bestimmt.

For `CCCCCCCCCCCCSCC(COP(=O)(O)OC[C@H]1O[C@@H](n2cc(C)c(=O)[nH]c2=O)C[C@@H]1N=[N+]=[N-])OCCCCCCCCCC` (stereo partly drawn) [AZT-DMDOPE, (3'-Desoxy-3'-azidothymidin)-5'-phosphorsäure-(3-dodecyl-mercapto-2-decyloxy)-propylester], the “Metabolisierung von AZT-DMDOPE” value (CEM-SS-Zellen) was “zu DMDOP und AZT-MP metabolisiert”, the “um Faktor höhere Konzentration an phosphoryliertem AZT im Vergleich zu äquipotenter Konzentration an AZT” value (stimulierten humanen PBL; 10 µg AZT-DMDOPE/ml vs. 0.3 µg AZT/ml) was 4.5 and the “konstanter Wert der intrazellulären Konzentrationen an AZT und AZT-Nukleotiden” value (stimulierten humanen PBL; 24 h preincubation with 10 µg AZT-DMDOPE/ml, reached after 3 h, constant over 48 h) was 1.80 ng/10^6 Zellen. For the same compound, the “Fluoreszenzauslöschung DC” value [1] was “negativ”, the “Fluoreszenzauslöschung DC” value [2] was “negativ” and the “maximale Konzentrationen an AZT und AZT-Nukleotiden” value (P3X63Ag8.653-Zellen; 1 µg AZT-DMDOPE/ml) was 0.55 ng/10^6 Zellen. For the same compound, the “maximale Konzentrationen, nur AZT erfaßt” value (P3X63Ag8.653-Zellen; 1 µg AZT-DMDOPE/ml) was 0.05 ng/mL, the “Substanzspiegel an phosphoryliertem AZT” value (P3X63Ag8.653-Zellen; 1 µg AZT-DMDOPE/ml) was 0.48 ng/10^6 Zellen and the “maximale Konzentrationen an AZT und AZT-Nukleotiden” value (P3X63Ag8.653-Zellen; 10 µg AZT-DMDOPE/ml) was 4.40 ng/10^6 Zellen. For the same compound, the “maximale Konzentrationen, nur AZT erfaßt” value (P3X63Ag8.653-Zellen; 10 µg AZT-DMDOPE/ml) was 1.10 ng/mL, the “Substanzspiegel an phosphoryliertem AZT” value (P3X63Ag8.653-Zellen; 10 µg AZT-DMDOPE/ml) was 2.42 ng/10^6 Zellen and the “intrazelluläre Konzentrationen an AZT und AZT-Nukleotiden im Vergleich zu äquipotenten Konzentrationen an AZT” value (P3X63Ag8.653-Zellen; 6, 24 and 48 h incubation) was “deutlich höher”.
